Converted amounts (≈) assume the structure as drawn.
Experiments:
Format in all cases: functional
Staphylococcus aureus [1] = test: Antibacterial activity against Staphylococcus aureus MTCC 96 assessed as growth inhibition after 24 hr by agar streak dilution method; conditions: MTCC 96, 24 h
Klebsiella pneumoniae [2] = test: Antibacterial activity against Klebsiella pneumoniae MTCC 109 assessed as growth inhibition at 3.12 to 50 ug/mL after 24 hr by agar disk diffusion method
Proteus vulgaris [3] = test: Antibacterial activity against Proteus vulgaris MTCC 1771 assessed as growth inhibition at 3.12 to 50 ug/mL after 24 hr by agar disk diffusion method
Staphylococcus aureus [4] = test: Antibacterial activity against Staphylococcus aureus MTCC 96 assessed as growth inhibition at 3.12 to 50 ug/mL after 24 hr by agar disk diffusion method
Proteus vulgaris [5] = test: Antibacterial activity against Proteus vulgaris MTCC 1771 assessed as growth inhibition after 24 hr by agar streak dilution method; conditions: MTCC 1771, 24 h
[6] = system: Mycobacterium tuberculosis; test: Antimycobacterial activity against Mycobacterium tuberculosis H37Rv assessed as growth inhibition measured within 10 days by BACTEC MGIT method; conditions: 240 h
[7] = system: Mycobacterium tuberculosis; test: Antimycobacterial activity against Mycobacterium tuberculosis H37Rv assessed as growth inhibition after 12 to 28 days by Lowenstein and Jensen agar dilution method
Klebsiella pneumoniae [8] = test: Antibacterial activity against Klebsiella pneumoniae MTCC 109 assessed as growth inhibition after 24 hr by agar streak dilution method; conditions: MTCC 109, 24 h
Shigella flexneri [9] = test: Antibacterial activity against Shigella flexneri MTCC 1457 assessed as growth inhibition after 24 hr by agar streak dilution method; conditions: MTCC 1457, 24 h
Aspergillus fumigatus [10] = test: Antifungal activity against Aspergillus fumigatus MTCC 343 assessed as growth inhibition after 48 hr by agar streak dilution method; conditions: MTCC 343, 48 h
Pseudomonas aeruginosa [11] = test: Antibacterial activity against Pseudomonas aeruginosa MTCC 741 assessed as growth inhibition at 3.12 to 50 ug/mL after 24 hr by agar disk diffusion method
Bacillus cereus [12] = test: Antibacterial activity against Bacillus cereus MTCC 430 assessed as growth inhibition after 24 hr by agar streak dilution method; conditions: MTCC 430, 24 h
Salmonella typhi [13] = test: Antibacterial activity against Salmonella enterica subsp. enterica serovar Typhi MTCC 733 assessed as growth inhibition at 3.12 to 50 ug/mL after 24 hr by agar disk diffusion method
Aspergillus clavatus [14] = test: Antifungal activity against Aspergillus clavatus MTCC 1323 assessed as growth inhibition after 48 hr by agar streak dilution method; conditions: MTCC 1323, 48 h
Candida albicans [15] = test: Antifungal activity against Candida albicans MTCC 183 assessed as growth inhibition after 48 hr by agar streak dilution method; conditions: MTCC 183, 48 h
Escherichia coli [16] = test: Antibacterial activity against Escherichia coli MTCC 739 assessed as growth inhibition after 24 hr by agar streak dilution method; conditions: MTCC 739, 24 h
Aspergillus clavatus [17] = test: Antifungal activity against Aspergillus clavatus MTCC 1323 assessed as growth inhibition at 3.12 to 50 ug/mL after 24 hr by agar disk diffusion method
Pseudomonas aeruginosa [18] = test: Antibacterial activity against Pseudomonas aeruginosa MTCC 741 assessed as growth inhibition after 24 hr by agar streak dilution method; conditions: MTCC 741, 24 h
Aspergillus fumigatus [19] = test: Antifungal activity against Aspergillus fumigatus MTCC 343 assessed as growth inhibition at 3.12 to 50 ug/mL after 24 hr by agar disk diffusion method
[20] = system: Mycobacterium tuberculosis; test: Antimycobacterial activity against Mycobacterium tuberculosis H37Rv assessed as growth inhibition at MIC after 12 to 28 days by Lowenstein and Jensen agar dilution method
Salmonella typhi [21] = test: Antibacterial activity against Salmonella enterica subsp. enterica serovar Typhi MTCC 733 assessed as growth inhibition after 24 hr by agar streak dilution method; conditions: MTCC 733, 24 h
Candida albicans [22] = test: Antifungal activity against Candida albicans MTCC 183 assessed as growth inhibition at 3.12 to 50 ug/mL after 24 hr by agar disk diffusion method
Aspergillus niger [23] = test: Antifungal activity against Aspergillus niger MTCC 282 assessed as growth inhibition after 48 hr by agar streak dilution method; conditions: MTCC 282, 48 h
Shigella flexneri [24] = test: Antibacterial activity against Shigella flexneri MTCC 1457 assessed as growth inhibition at 3.12 to 50 ug/mL after 24 hr by agar disk diffusion method
Bacillus cereus [25] = test: Antibacterial activity against Bacillus cereus MTCC 430 assessed as growth inhibition at 3.12 to 50 ug/mL after 24 hr by agar disk diffusion method
Escherichia coli [26] = test: Antibacterial activity against Escherichia coli MTCC 739 assessed as growth inhibition at 3.12 to 50 ug/mL after 24 hr by agar disk diffusion method
Aspergillus niger [27] = test: Antifungal activity against Aspergillus niger MTCC 282 assessed as growth inhibition at 3.12 to 50 ug/mL after 24 hr by agar disk diffusion method

SMILES	MIC (Staphylococcus aureus [1])	inhibition zone (IZ) (Klebsiella pneumoniae [2])	inhibition zone (IZ) (Proteus vulgaris [3])	inhibition zone (IZ) (Staphylococcus aureus [4])	MIC (Proteus vulgaris [5])	MIC [6]	MIC [7]	MIC (Klebsiella pneumoniae [8])	MIC (Shigella flexneri [9])	MIC (Aspergillus fumigatus [10])	inhibition zone (IZ) (Pseudomonas aeruginosa [11])	MIC (Bacillus cereus [12])	inhibition zone (IZ) (Salmonella typhi [13])	MIC (Aspergillus clavatus [14])	MIC (Candida albicans [15])	MIC (Escherichia coli [16])	inhibition zone (IZ) (Aspergillus clavatus [17])	MIC (Pseudomonas aeruginosa [18])	inhibition zone (IZ) (Aspergillus fumigatus [19])	growth inhibition (GI) [20]	also measured
CC(=O)Nc1ccc2nc(NC(=O)CNc3ccc(-c4nc(N5CC(C)CC(C)C5)nc(N5CC(C)CC(C)C5)n4)cc3)sc2c1 (stereo not drawn)	50 µg/mL (≈ 77.9 µM)	21 mm	26 mm	19 mm	6.25 µg/mL (≈ 9.74 µM)	> 6.25 µg/mL	50 µg/mL (≈ 77.9 µM)	50 µg/mL (≈ 77.9 µM)	50 µg/mL (≈ 77.9 µM)	> 50 µg/mL	19 mm	50 µg/mL (≈ 77.9 µM)	17 mm	50 µg/mL (≈ 77.9 µM)	25 µg/mL (≈ 39 µM)	50 µg/mL (≈ 77.9 µM)	24 mm	50 µg/mL (≈ 77.9 µM)	<10 mm	98%	MIC (Salmonella typhi [21]): 50 µg/mL (≈ 77.9 µM); inhibition zone (IZ) (Candida albicans [22]): 22 mm; MIC (Aspergillus niger [23]): 6.25 µg/mL (≈ 9.74 µM); inhibition zone (IZ) (Shigella flexneri [24]): 13 mm; inhibition zone (IZ) (Bacillus cereus [25]): 17 mm; inhibition zone (IZ) (Escherichia coli [26]): 19 mm; inhibition zone (IZ) (Aspergillus niger [27]): 24 mm
CC1CC(C)CN(c2nc(-c3ccc(NCC(=O)Nc4nc5ccc(Cl)cc5s4)cc3)nc(N3CC(C)CC(C)C3)n2)C1 (stereo not drawn)	6.25 µg/mL (≈ 10.1 µM)	23 mm	20 mm	22 mm	50 µg/mL (≈ 80.7 µM)	> 6.25 µg/mL	62.5 µg/mL (≈ 101 µM)	50 µg/mL (≈ 80.7 µM)	6.25 µg/mL (≈ 10.1 µM)	> 50 µg/mL	26 mm	6.25 µg/mL (≈ 10.1 µM)	22 mm	> 50 µg/mL	50 µg/mL (≈ 80.7 µM)	25 µg/mL (≈ 40.4 µM)	<10 mm	25 µg/mL (≈ 40.4 µM)	<10 mm	97%	MIC (Salmonella typhi [21]): 25 µg/mL (≈ 40.4 µM); inhibition zone (IZ) (Candida albicans [22]): 12 mm; MIC (Aspergillus niger [23]): 50 µg/mL (≈ 80.7 µM); inhibition zone (IZ) (Shigella flexneri [24]): 26 mm; inhibition zone (IZ) (Bacillus cereus [25]): 27 mm; inhibition zone (IZ) (Escherichia coli [26]): 21 mm; inhibition zone (IZ) (Aspergillus niger [27]): 17 mm
CC1CC(C)CN(c2nc(-c3ccc(NCC(=O)Nc4nc5ccc(Br)cc5s4)cc3)nc(N3CC(C)CC(C)C3)n2)C1 (stereo not drawn)	1.56 µg/mL (≈ 2.35 µM)	11 mm	23 mm	25 mm	25 µg/mL (≈ 37.7 µM)	> 6.25 µg/mL	12.5 µg/mL (≈ 18.8 µM)	50 µg/mL (≈ 75.3 µM)	12.5 µg/mL (≈ 18.8 µM)	50 µg/mL (≈ 75.3 µM)	25 mm	6.25 µg/mL (≈ 9.42 µM)	24 mm	50 µg/mL (≈ 75.3 µM)	50 µg/mL (≈ 75.3 µM)	12.5 µg/mL (≈ 18.8 µM)	26 mm	25 µg/mL (≈ 37.7 µM)	19 mm	99%	MIC (Salmonella typhi [21]): 6.25 µg/mL (≈ 9.42 µM); inhibition zone (IZ) (Candida albicans [22]): 18 mm; MIC (Aspergillus niger [23]): 50 µg/mL (≈ 75.3 µM); inhibition zone (IZ) (Shigella flexneri [24]): 25 mm; inhibition zone (IZ) (Bacillus cereus [25]): 26 mm; inhibition zone (IZ) (Escherichia coli [26]): 23 mm; inhibition zone (IZ) (Aspergillus niger [27]): 19 mm
CC1CC(C)CN(c2nc(-c3ccc(NCC(=O)Nc4nc5ccc(I)cc5s4)cc3)nc(N3CC(C)CC(C)C3)n2)C1 (stereo not drawn)	12.5 µg/mL (≈ 17.6 µM)	12 mm	26 mm	21 mm	12.5 µg/mL (≈ 17.6 µM)	> 6.25 µg/mL	200 µg/mL (≈ 281 µM)	50 µg/mL (≈ 70.4 µM)	25 µg/mL (≈ 35.2 µM)	> 50 µg/mL	16 mm	25 µg/mL (≈ 35.2 µM)	17 mm	50 µg/mL (≈ 70.4 µM)	50 µg/mL (≈ 70.4 µM)	50 µg/mL (≈ 70.4 µM)	11 mm	50 µg/mL (≈ 70.4 µM)	<10 mm	96%	MIC (Salmonella typhi [21]): 50 µg/mL (≈ 70.4 µM); inhibition zone (IZ) (Candida albicans [22]): 20 mm; MIC (Aspergillus niger [23]): 50 µg/mL (≈ 70.4 µM); inhibition zone (IZ) (Shigella flexneri [24]): 23 mm; inhibition zone (IZ) (Bacillus cereus [25]): 24 mm; inhibition zone (IZ) (Escherichia coli [26]): 18 mm; inhibition zone (IZ) (Aspergillus niger [27]): <10 mm
